# From US11629171B2, “Beta-hairpin peptidomimetics” (POLYPHOR AG, priority 2017, dated 2023)
# Where a SMILES comes first, the peptide text is derived from it. Bridges are numbered along the chain shown (N, C = ends). Roman numbers before positions name the chains, in order. [ ]: non-standard residue; d: D form. The star is where a group is joined. dDab = NCC[C@@H](N)C(=O)O; NHCH(CH2OH)2 = OCC(CO)N*; Dab = NCC[C@H](N)C(=O)O; Dap = NC[C@H](N)C(=O)O
# Assays:
# [1] = test system: Acinetobacter baumannii 872842; format: cell-based; conditions: 872842
# How it was run: (§1)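 Two-fold peptide dilutions in polysorbate 80-containing (0.002% final) cation-adjusted Mueller-Hinton II broth were inoculated with about 10^6 CFU/mL. The MIC was taken as the lowest concentration, in μg/mL, preventing visible growth at 18-20 hours and 35° C.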
# [2] = test system: Enterobacter cloacae 848840; format: cell-based; conditions: 848840
# How it was run: as §1
# [3] = test system: Escherichia coli ATCC 25922; format: cell-based; conditions: ATCC 25922
# How it was run: as §1
# Escherichia coli 926415 = format: cell-based; conditions: 926415
# How it was run: as §1
# [4] = test system: Acinetobacter baumannii DSM 30008; format: cell-based; conditions: DSM 30008
# How it was run: as §1
# [5] = test system: Klebsiella pneumoniae SSI #3010; format: cell-based; conditions: SSI #3010
# How it was run: as §1
# [6] = test system: Klebsiella pneumoniae 968733; format: cell-based; conditions: 968733
# How it was run: as §1
# [7] = test system: Pseudomonas aeruginosa ATCC 27853; format: cell-based; conditions: ATCC 27853
# How it was run: as §1
# [8] = test system: human red blood cells (hRBC); experiment: Hemolysis; format: cell-based; conditions: red cells of human, 1 h, 200
# How it was run: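 hRBC washed 4× in PBS; 200 μg/mL peptide + 20% (v/v) hRBC, 1 h, 37° C, 300 rpm. Spin, supernatant ~7.5-fold diluted, OD540 blank corrected. % hemolysis = OD540 peptide / OD540 Triton X-100 × 100.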
# male ICR mice = experiment: Tolerability in a mouse model (Maximum Tolerated Dose assay); format: in vivo; conditions: 2 × 30 mg/kg s.c. at a 12-hr interval, groups of 3
# How it was run: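 Groups of 3 male ICR mice weighing 23±3 g received two subcutaneous doses, 12 h apart, of 30 or 40 mg/kg in saline adjusted to pH 6.5-7.6. Observation for 30 min after each dose covered autonomic effects and acute toxicity, including death.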
structure (smiles),measurement,setting,value
CC(=O)N[C@H](C(=O)N[C@H]1CSSC[C@@H](C(=O)NC(CO)CO)NC(=O)[C@H](C(C)C)NC(=O)[C@H](CO)NC(=O)[C@H](Cc2c[nH]c3ccccc23)NC(=O)[C@H](CO)NC(=O)[C@@H](CCN)NC(=O)[C@H](CCC(=O)N[C@@H](CCN)C(=O)N[C@H](C(=O)N[C@@H](CN)C(=O)N[C@H]2CCNC(=O)[C@H]([C@@H](C)O)NC(=O)[C@H](CCN)NC(=O)[C@H](CCN)NC(=O)[C@H](CC(C)C)NC(=O)[C@@H](CC(C)C)NC(=O)[C@H](CCN)NC2=O)[C@@H](C)O)NC(=O)[C@H](CCN)NC(=O)[C@H](Cc2ccc(O)cc2)NC1=O)C(C)C [Ex. 116] (I: Ac-VCY[Dab]E[dDab]SWSVC-{NHCH(CH2OH)2} / II: [Dab]T[Dap][Dab][Dab][dL]L[Dab][Dab]T; disulfide I:2-I:11; amide I:5-II:N; lactam II:4-II:C),MIC,[1],0.0625 µg/mL
same,MIC,[2],0.03125 µg/mL
same,MIC,[3],0.03125 µg/mL
same,MIC,Escherichia coli 926415,0.125 µg/mL
same,MIC,[4],0.03125 µg/mL
same,MIC,[5],0.03125 µg/mL
same,MIC,[6],0.25 µg/mL
same,MIC,[7],0.125 µg/mL
same,Hemolysis at 200 μg/mL,[8],<1%
same,Mortality and dose,male ICR mice,0/3 died at 2 × 30 mg/kg
